From patent publication US20140303092A1 (CHIMERIX, INC., priority 2011, published 2014)

Columns and labels:
[1] = Study HDP-CDV-112: mass balance and metabolite profiling of 14C-radiolabeled HDP-CDV; conditions: for metabolite AUC as share of total HDP-CDV-derived radioactivity AUC: plasma, through 24 h postdose
Description: The criteria for stopping urine and stool collection were assessed independently of each other.

HHV-6(B) = experiment: In vitro antiviral activity in cell culture, HHV-6(B); type: cell-based, human herpesvirus 6; conditions: Human betaherpesvirus 6, B-cell
AdV = experiment: In vitro antiviral activity in cell culture, AdV; type: cell-based; conditions: unidentified adenovirus
clinical = conditions: human, in vivo
Description: The pharmacokinetics of HDP-CDV (oral solution) were investigated in a dose-escalation study in healthy volunteers (Study HDP-CDV-102) in which single doses of up to 2 mg/kg and multiple doses (3 doses, each separated by 6 days) of up to 1 mg/kg were administered.

Row | Compound | percent dose excreted in feces ([1]; drug-derived metabolites) | percent dose excreted in urine ([1]; drug-derived metabolites) | metabolite AUC as share of total HDP-CDV-derived radioactivity AUC [1] | in vitro pharmacological activity and cytotoxicity compared to HDP-CDV (ectromelia) | EC50 (HHV-6(B)) | EC50 (AdV) | Cmax and AUC versus dose (clinical) | accumulation on Day 12 (clinical) | time of Cmax after administration (clinical; po)
1 | Nc1ccn(CC(CO)OCP(=O)(O)OCCCO)c(=O)n1 (stereo not drawn) [CMX103, 3-hydroxypropyl ester of CDV] | 6% | 21% | approximately 32% | lower pharmacologic and cytotoxic activity |  |  |  |  | 
2 | Nc1ccn(C[C@@H](CO)OCP(=O)(O)O)c(=O)n1 [Cidofovir, cidofovir, reference compound] |  |  |  | lower pharmacologic and cytotoxic activity | 5.4 µM | 1.3 µM | increased approximately in proportion to dose | negligible accumulation | 9 to 15 h
3 | Nc1nc(O)c2ncn(COC(CO)CO)c2n1 [Ganciclovir, ganciclovir] |  |  |  |  | 5.9 µM | 4.5 to 33 µM |  |  | 
4 | Nc1ccn(C[C@@H](CO)OCP(=O)(O)OCCCOCCCC(=O)O)c(=O)n1 [CMX064, 4-(3-propoxy)butanoic acid ester of CDV] |  | 10% | ~23% | lower pharmacologic and cytotoxic activity |  |  |  |  | 
